Assay results: article PMC6291243 (The Journal of organic chemistry, 2018)

Assays:
[1] = biological target: Mur20 (Streptomyces sp. NRRL 30471, UniProt F2WUD2); assay: HPLC, specific activity; type: biochemical; conditions: amine donor; 1 mM 11a, 50 mM potassium phosphate pH 7.5, 30 °C
[2] = biological target: T1, LipM (Streptomyces sp. SANK 60405, UniProt D4QF26); assay: HPLC of UDP-sugar, coupled with phosphorylase; type: biochemical; conditions: generated in situ from 13b; UTP
T1 sequence (D4QF26 1-233): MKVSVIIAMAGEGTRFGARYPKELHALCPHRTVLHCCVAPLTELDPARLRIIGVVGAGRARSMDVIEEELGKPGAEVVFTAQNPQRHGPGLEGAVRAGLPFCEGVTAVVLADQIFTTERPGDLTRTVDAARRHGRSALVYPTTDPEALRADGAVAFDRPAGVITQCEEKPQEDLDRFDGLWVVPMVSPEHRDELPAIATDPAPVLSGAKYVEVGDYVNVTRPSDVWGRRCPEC

| Compound | HPLC, specific activity [1] | HPLC of UDP-sugar, coupled with phosphorylase [2] |
| --- | --- | --- |
| N[C@@H](Cc1ccc(O)cc1)C(=O)O [L-Tyr] | the specific activity for Mur20 was highest using L-Tyr as an amine donor |  |
| NC[C@H]1O[C@H](OP(=O)(O)O)C[C@@H]1O [5-amino-2,5-dideoxy-α-D-ribose-1-phosphate] |  | either enzyme was substituted with the respective orthologous proteins LipP or LipM |
